In patent US9988400B2 (Genentech, Inc., priority 2013, dated 2018) one finds EC50 data, which are given here for 30 compounds.

The target in the assay is T1, HEK cells stably transfected with tetracycline inducible hNR1 and hNR2A (Homo sapiens, UniProt Q05586+Q12879).
T1 construct: expressed in transfected cells; host or cells: HEK cells, stably transfected, tetracycline/doxycycline inducible
The experiment in a line: Assay 1: Cell-Based Assay, cytosolic calcium response to positive allosteric modulators (with 30 μM glycine and 300 nM L-glutamate, EC30). The note with it: Table 3; cytosolic calcium response, with 30 μM glycine and 300 nM L-glutamate (EC30); — = no plateau was reached. The gist of the method: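 Cells induced 24 h with 7.5 μg mL^−1 doxycycline plus 500 μM (+)-ketamine, loaded 60 min at 37 °C with calcium dye in Mg-free HBSS (1.8 mM Ca, probenecid, 10 μM (+)-ketamine, pH 7.15). Peak RFU over 5 min after compound addition, scaled to 100 μM L-glutamate (100%) and 0 μM (0%); four-parameter Hill fit for EC50, max % if no plateau.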

T1 sequence (Q12879 23-1464, other chains not shown): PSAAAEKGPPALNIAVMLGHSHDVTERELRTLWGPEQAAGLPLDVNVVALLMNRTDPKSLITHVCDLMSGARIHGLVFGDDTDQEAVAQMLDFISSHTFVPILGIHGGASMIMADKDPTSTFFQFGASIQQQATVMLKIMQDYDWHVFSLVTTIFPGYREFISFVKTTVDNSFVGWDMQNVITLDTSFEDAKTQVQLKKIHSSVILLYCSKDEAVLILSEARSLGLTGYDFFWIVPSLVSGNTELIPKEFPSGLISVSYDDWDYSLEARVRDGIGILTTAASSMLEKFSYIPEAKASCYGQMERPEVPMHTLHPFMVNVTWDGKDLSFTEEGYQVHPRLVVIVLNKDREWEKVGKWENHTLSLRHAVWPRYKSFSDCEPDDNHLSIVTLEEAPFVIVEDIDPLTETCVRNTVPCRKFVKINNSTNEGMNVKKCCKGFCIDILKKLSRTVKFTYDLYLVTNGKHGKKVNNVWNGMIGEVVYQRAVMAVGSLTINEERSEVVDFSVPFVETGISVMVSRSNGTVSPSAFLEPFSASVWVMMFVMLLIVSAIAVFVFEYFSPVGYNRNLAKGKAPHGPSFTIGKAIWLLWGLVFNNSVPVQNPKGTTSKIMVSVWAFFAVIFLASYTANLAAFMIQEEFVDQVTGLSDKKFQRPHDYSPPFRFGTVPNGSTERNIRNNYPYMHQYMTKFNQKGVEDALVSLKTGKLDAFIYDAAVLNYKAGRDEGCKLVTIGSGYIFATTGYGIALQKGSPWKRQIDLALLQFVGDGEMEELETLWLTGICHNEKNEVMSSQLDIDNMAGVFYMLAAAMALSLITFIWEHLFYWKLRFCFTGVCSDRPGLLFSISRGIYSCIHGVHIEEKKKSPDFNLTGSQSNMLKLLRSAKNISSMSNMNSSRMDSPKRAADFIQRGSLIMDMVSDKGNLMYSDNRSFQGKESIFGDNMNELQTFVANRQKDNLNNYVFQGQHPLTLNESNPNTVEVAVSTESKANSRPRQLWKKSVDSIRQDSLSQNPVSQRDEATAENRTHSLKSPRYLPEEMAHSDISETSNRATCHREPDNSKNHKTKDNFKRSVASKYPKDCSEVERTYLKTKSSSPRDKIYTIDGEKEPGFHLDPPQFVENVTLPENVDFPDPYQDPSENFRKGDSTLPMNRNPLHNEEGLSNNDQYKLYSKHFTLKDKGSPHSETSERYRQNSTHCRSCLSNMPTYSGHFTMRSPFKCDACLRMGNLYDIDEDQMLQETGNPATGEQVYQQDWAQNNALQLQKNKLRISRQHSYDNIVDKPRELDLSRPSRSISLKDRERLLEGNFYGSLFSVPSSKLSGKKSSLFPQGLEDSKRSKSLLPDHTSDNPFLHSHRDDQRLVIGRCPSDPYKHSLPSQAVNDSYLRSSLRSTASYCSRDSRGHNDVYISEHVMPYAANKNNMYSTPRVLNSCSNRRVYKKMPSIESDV

One may read the EC50 as the concentration at which the effect is half-maximal. `Cc1sc2nc(Cc3cccc(C#N)c3F)cc(=O)n2c1C1CC1(F)F` (stereo not drawn) [compound 39, 3-[[3-(2,2-Difluorocyclopropyl)-2-methyl-5-oxo-thiazolo[3,2-a]pyrimidin-7-yl]methyl]-2-fluorobenzonitrile]: the EC50 was found to be 6.1 µM. With `CCNC(=O)c1c(C(F)(F)F)sc2nc(Cc3cccc(C(F)(F)F)c3F)cc(=O)n12` [compound 40, N-ethyl-7-[[2-fluoro-3-(trifluoromethyl)phenyl]methyl]-5-oxo-2-(trifluoromethyl)thiazolo[3,2-a]pyrimidine-3-carboxamide], the EC50 came out at 1.32 µM.

Regarding `CCNC(=O)c1c(C(F)(F)F)sc2nc(Cc3cccc(C#N)c3F)cc(=O)n12` [compound 41, 7-[(3-cyano-2-fluoro-phenyl)methyl]-N-ethyl-5-oxo-2-(trifluoromethyl)thiazolo[3,2-a]pyrimidine-3-carboxamide], the EC50 came out at 4.78 µM. The figure for `CCNC(=O)c1c(C(F)(F)F)sc2nc(Cc3cccc(C(F)F)c3F)cc(=O)n12` [compound 42, 7-[[3-(difluoromethyl)-2-fluoro-phenyl]methyl]-N-ethyl-5-oxo-2-(trifluoromethyl)thiazolo[3,2-a]pyrimidine-3-carboxamide] is 1.57 µM; for `CCNC(=O)c1c(C(F)(F)F)sc2nc(Cn3nc(C(F)(F)F)cc3Cl)cc(=O)n12` [compound 43, 7-[[5-chloro-3-(trifluoromethyl)pyrazol-1-yl]methyl]-N-ethyl-5-oxo-2-(trifluoromethyl)thiazolo[3,2-a]pyrimidine-3-carboxamide] it is 0.362 µM; for `CCNC(=O)c1c(C(F)(F)F)sc2nc(Cn3nc(Cl)cc3C(F)(F)F)cc(=O)n12` [compound 44, 7-[[3-chloro-5-(trifluoromethyl)pyrazol-1-yl]methyl]-N-ethyl-5-oxo-2-(trifluoromethyl)thiazolo[3,2-a]pyrimidine-3-carboxamide] it is 0.685 µM. Regarding `CCNC(=O)c1c(C(F)(F)F)sc2nc(Cn3nc(C(F)(F)F)cc3C)cc(=O)n12` [compound 45, N-ethyl-7-[[5-methyl-3-(trifluoromethyl)pyrazol-1-yl]methyl]-5-oxo-2-(trifluoromethyl)thiazolo[3,2-a]pyrimidine-3-carboxamide], the EC50 amounted to 1.25 µM.

Take `CCNC(=O)c1c(C(F)(F)F)sc2nc(Cn3nc(C)cc3C(F)(F)F)cc(=O)n12` [compound 46, N-ethyl-7-[[3-methyl-5-(trifluoromethyl)pyrazol-1-yl]methyl]-5-oxo-2-(trifluoromethyl)thiazolo[3,2-a]pyrimidine-3-carboxamide]: the EC50 is 7.04 µM. With `Cc1sc2nc(Cc3cccc(C(F)(F)F)c3F)cc(=O)n2c1-c1ncc[nH]1` [compound 47, 7-[[2-fluoro-3-(trifluoromethyl)phenyl]methyl]-3-(1H-imidazol-2-yl)-2-methyl-thiazolo[3,2-a]pyrimidin-5-one], the EC50 came out at 5.14 µM. Then `CCNC(=O)c1c(C)sc2nc(Oc3cccc(C(F)(F)F)c3F)cc(=O)n12` [compound 48, N-ethyl-7-[2-fluoro-3-(trifluoromethyl)phenoxy]-2-methyl-5-oxo-thiazolo[3,2-a]pyrimidine-3-carboxamide], with 7.66 µM; and `CCNC(=O)c1c(C)sc2nc(Cc3cc(C)cc(C#N)c3F)cc(=O)n12` [compound 49, 7-[(3-cyano-2-fluoro-5-methyl-phenyl)methyl]-N-ethyl-2-methyl-5-oxo-thiazolo[3,2-a]pyrimidine-3-carboxamide], with 17.5 µM. Turning to `CCNC(=O)c1c(C(F)(F)F)sc2nc(Cc3cccc(Cl)c3F)cc(=O)n12` [compound 50, 7-[(3-chloro-2-fluoro-phenyl)methyl]-N-ethyl-5-oxo-2-(trifluoromethyl)thiazolo[3,2-a]pyrimidine-3-carboxamide], the EC50 turned out to be 6.4 µM. Then `Cc1sc2nc(Cc3cccc(C(F)(F)F)c3F)cc(=O)n2c1C(=O)NCC(F)(F)F` [compound 51, 7-[[2-fluoro-3-(trifluoromethyl)phenyl]methyl]-2-methyl-5-oxo-N-(2,2,2-trifluoroethyl)thiazolo[3,2-a]pyrimidine-3-carboxamide], with 3.16 µM; and `Cc1sc2nc(Cn3nc(C(F)(F)F)cc3C)cc(=O)n2c1C(=O)NCC(F)(F)F` [compound 52, 2-methyl-7-[[5-methyl-3-(trifluoromethyl)pyrazol-1-yl]methyl]-5-oxo-N-(2,2,2-trifluoroethyl)thiazolo[3,2-a]pyrimidine-3-carboxamide], with 8.76 µM; and `CNC(=O)c1c(C(F)(F)F)sc2nc(Cn3nc(C(F)(F)F)cc3C3CC3)cc(=O)n12` [compound 53, 7-[[5-cyclopropyl-3-(trifluoromethyl)pyrazol-1-yl]methyl]-N-methyl-5-oxo-2-(trifluoromethyl)thiazolo[3,2-a]pyrimidine-3-carboxamide], with 0.635 µM. Turning to `CNC(=O)c1c(C(F)(F)F)sc2nc(Cn3nc(C4CC4)cc3C(F)(F)F)cc(=O)n12` [compound 54, 7-[[3-cyclopropyl-5-(trifluoromethyl)pyrazol-1-yl]methyl]-N-methyl-5-oxo-2-(trifluoromethyl)thiazolo[3,2-a]pyrimidine-3-carboxamide], the EC50 turned out to be 2.2 µM.

As to `CNC(=O)c1c(C(F)(F)F)sc2nc(Cn3nc(C(F)(F)F)cc3Cl)cc(=O)n12` [compound 55, 7-[[5-chloro-3-(trifluoromethyl)pyrazol-1-yl]methyl]-N-methyl-5-oxo-2-(trifluoromethyl)thiazolo[3,2-a]pyrimidine-3-carboxamide], the EC50 amounted to 1.16 µM. The figure for `CNC(=O)c1c(C(F)(F)F)sc2nc(Cn3nc(Cl)cc3C(F)(F)F)cc(=O)n12` [compound 56, 7-[[3-chloro-5-(trifluoromethyl)pyrazol-1-yl]methyl]-N-methyl-5-oxo-2-(trifluoromethyl)thiazolo[3,2-a]pyrimidine-3-carboxamide] is 2.27 µM. The figure for `Cc1sc2nc(Cn3nc(C(F)(F)F)cc3C3CC3)cc(=O)n2c1C(=O)NCC(F)(F)F` [compound 57, 7-[[5-cyclopropyl-3-(trifluoromethyl)pyrazol-1-yl]methyl]-2-methyl-5-oxo-N-(2,2,2-trifluoroethyl)thiazolo[3,2-a]pyrimidine-3-carboxamide] is 0.627 µM; for `Cc1sc2nc(Cn3nc(C4CC4)cc3C(F)(F)F)cc(=O)n2c1C(=O)NCC(F)(F)F` [compound 58, 7-[[3-cyclopropyl-5-(trifluoromethyl)pyrazol-1-yl]methyl]-2-methyl-5-oxo-N-(2,2,2-trifluoroethyl)thiazolo[3,2-a]pyrimidine-3-carboxamide] it is 6.53 µM; for `CNC(=O)c1c(C)sc2nc(Oc3cccc(C(F)(F)F)c3F)cc(=O)n12` [compound 59, 7-[2-fluoro-3-(trifluoromethyl)phenoxy]-N,2-dimethyl-5-oxo-thiazolo[3,2-a]pyrimidine-3-carboxamide] it is 8.22 µM. In the case of `CCNC(=O)c1c(Cl)sc2nc(Cc3cccc(C(F)(F)F)c3F)cc(=O)n12` [compound 60, 2-chloro-N-ethyl-7-[[2-fluoro-3-(trifluoromethyl)phenyl]methyl]-5-oxo-thiazolo[3,2-a]pyrimidine-3-carboxamide], the EC50 came out at 3.22 µM. Then `CNC(=O)c1c(C(F)(F)F)sc2nc(Cn3nc(C(F)(F)F)cc3C)cc(=O)n12` [compound 61, N-methyl-7-[[5-methyl-3-(trifluoromethyl)pyrazol-1-yl]methyl]-5-oxo-2-(trifluoromethyl)thiazolo[3,2-a]pyrimidine-3-carboxamide], with 8.06 µM; and `CNC(=O)c1c(C(F)(F)F)sc2nc(Cn3nc(C)cc3C(F)(F)F)cc(=O)n12` [compound 62, N-methyl-7-[[3-methyl-5-(trifluoromethyl)pyrazol-1-yl]methyl]-5-oxo-2-(trifluoromethyl)thiazolo[3,2-a]pyrimidine-3-carboxamide], with 24.6 µM; and `CNC(=O)c1c(C(F)(F)F)sc2nc(Cc3cccc(C(F)(F)F)c3F)cc(=O)n12` [compound 63, 7-[[2-fluoro-3-(trifluoromethyl)phenyl]methyl]-N-methyl-5-oxo-2-(trifluoromethyl)thiazolo[3,2-a]pyrimidine-3-carboxamide], with 3.71 µM.

As for `CNC(=O)c1c(C(F)(F)F)sc2nc(Cc3cccc(Cl)c3F)cc(=O)n12` [compound 64, 7-[(3-chloro-2-fluoro-phenyl)methyl]-N-methyl-5-oxo-2-(trifluoromethyl)thiazolo[3,2-a]pyrimidine-3-carboxamide], the EC50 was 12.1 µM. Then `Cc1sc2nc(Cn3nc(C(F)(F)F)cc3Cl)cc(=O)n2c1C(=O)NCC(F)(F)F` [compound 65, 7-[[5-chloro-3-(trifluoromethyl)pyrazol-1-yl]methyl]-2-methyl-5-oxo-N-(2,2,2-trifluoroethyl)thiazolo[3,2-a]pyrimidine-3-carboxamide], with 0.551 µM; and `Cc1sc2nc(Cn3nc(Cl)cc3C(F)(F)F)cc(=O)n2c1C(=O)NCC(F)(F)F` [compound 66, 7-[[3-chloro-5-(trifluoromethyl)pyrazol-1-yl]methyl]-2-methyl-5-oxo-N-(2,2,2-trifluoroethyl)thiazolo[3,2-a]pyrimidine-3-carboxamide], with 1.69 µM.

For `Cc1cc(C(F)(F)F)n(Cc2cc(=O)n3c(C(=O)NCC(F)(F)F)c(C)sc3n2)n1` [compound 67, 2-methyl-7-[[3-methyl-5-(trifluoromethyl)pyrazol-1-yl]methyl]-5-oxo-N-(2,2,2-trifluoroethyl)thiazolo[3,2-a]pyrimidine-3-carboxamide], the EC50 turned out to be 36.6 µM.

With `CCNC(=O)c1c(C)sc2nc(Oc3cccc(C#N)c3F)cc(=O)n12` [compound 68, 7-(3-cyano-2-fluoro-phenoxy)-N-ethyl-2-methyl-5-oxo-thiazolo[3,2-a]pyrimidine-3-carboxamide], the EC50 was found to be 30.4 µM.
